# US20220184034A1, “METHODS FOR TREATING CUTANEOUS METASTATIC CANCERS” (Adgero Biopharmaceuticals Holdings, Inc., priority 2020, published 2022)
# Tested on: cutaneous lesions arising from either basal cell cancer, squamous cell cancer or CMBC
# Assay: Phase 1/2 dose escalation study of SnET2 PDT: lesion response
# Format: in vivo, patients
# Experimental: Two Phase 1/2 studies established the clinical dosimetry. The first study was a dose escalation study that enrolled a total of 22 patients with cutaneous lesions arising from either basal cell cancer, squamous cell cancer or CMBC. A total of 213 lesions were treated using photosensitizer SnET2) doses ranging from 0.1-1.2 mg/kg, light doses of 100, 150 or 200 J/cm^2 and treatment timepoints of 24, 48, or 72 hours post-infusion. Two key measures were utilized in these studies, lesion reaction and lesion response. Lesion reaction was an acute characterization of the treatment effect that was performed out to 1 week post-treatment according to the following scale: • Grade 0=No visual erythema or edema • Grade 1=Faint erythema and/or slight edema • Grade 2=Moderate erythema and edema • Grade 3=Severe discoloration, edema, sloughing or eschar
# Beginning at one month post-treatment and then at 3 and 6 months post-treatment, a lesion response assessment was conducted according to the following scoring system: • Complete Response (complete reduction of the lesion) • Partial Response (more than 50% reduction of the lesion) • Failure (less than 50% reduction of the lesion).
# Therefore, in the analysis that follows, results from all three treatment timepoints have been combined.
# A similar result was observed when individual patient responses were compared. In these studies, individual patients received a single drug dose and each patient then had individual lesions treated at various light doses (100, 150, or 200 J/cm^2) and treatment timepoints (24, 48, 72 hours post-infusion). In Table 3, results for each patient treated at 0.8 mg/kg or higher are provided. In each drug dose case, individual lesions were treated at one of the three light doses and one of the three treatment timepoints, all of which have been combined for each individual patient result in the table.
# [1] = 0.1 mg/kg, 100 J/cm^2, 24/48/72 h combined
# [2] = 0.1 mg/kg, 150 J/cm^2, 24/48/72 h combined
# [3] = 0.1 mg/kg, 200 J/cm^2, 24/48/72 h combined
# [4] = 0.2 mg/kg, 100 J/cm^2, 24/48/72 h combined
# [5] = 0.2 mg/kg, 150 J/cm^2, 24/48/72 h combined
# [6] = 0.2 mg/kg, 200 J/cm^2, 24/48/72 h combined
# [7] = 0.4 mg/kg, 100 J/cm^2, 24/48/72 h combined
# [8] = 0.4 mg/kg, 150 J/cm^2, 24/48/72 h combined
# [9] = 0.4 mg/kg, 200 J/cm^2, 24/48/72 h combined
# [10] = 0.8 mg/kg, 100 J/cm^2, 24/48/72 h combined
# [11] = 0.8 mg/kg, 100 J/cm^2, lesions scored for reaction at Week 1
# [12] = 0.8 mg/kg, 150 J/cm^2, 24/48/72 h combined
# [13] = 0.8 mg/kg, 150 J/cm^2, lesions scored for reaction at Week 1
# [14] = 0.8 mg/kg, 200 J/cm^2, 24/48/72 h combined
# [15] = 0.8 mg/kg, 200 J/cm^2, lesions scored for reaction at Week 1
# [16] = 1.0 mg/kg, 100 J/cm^2, 24/48/72 h combined
# [17] = 1.0 mg/kg, 100 J/cm^2, lesions scored for reaction at Week 1
# [18] = 1.0 mg/kg, 150 J/cm^2, 24/48/72 h combined
# [19] = 1.0 mg/kg, 150 J/cm^2, lesions scored for reaction at Week 1
# [20] = 1.0 mg/kg, 200 J/cm^2, 24/48/72 h combined
# [21] = 1.0 mg/kg, 200 J/cm^2, lesions scored for reaction at Week 1
# [22] = 1.2 mg/kg, 100 J/cm^2, 24/48/72 h combined
# [23] = 1.2 mg/kg, 100 J/cm^2, lesions scored for reaction at Week 1
# [24] = 1.2 mg/kg, 150 J/cm^2, 24/48/72 h combined
# [25] = 1.2 mg/kg, 150 J/cm^2, lesions scored for reaction at Week 1
# [26] = 1.2 mg/kg, 200 J/cm^2, 24/48/72 h combined
# [27] = 1.2 mg/kg, 200 J/cm^2, lesions scored for reaction at Week 1
# [28] = patient RC004, drug dose 0.8 mg/kg, light doses and timepoints combined
# [29] = patient RC005, drug dose 1.2 mg/kg, light doses and timepoints combined
# [30] = patient RC006, drug dose 1.2 mg/kg, light doses and timepoints combined
# [31] = patient RC007, drug dose 1.2 mg/kg, light doses and timepoints combined
# [32] = patient SC001, drug dose 1.2 mg/kg, light doses and timepoints combined
# [33] = patient SC002, drug dose 1 mg/kg, light doses and timepoints combined
# [34] = patient SC003, drug dose 1 mg/kg, light doses and timepoints combined
# [35] = patient SC004, drug dose 1 mg/kg, light doses and timepoints combined
# [36] = patient SC005, drug dose 1.2 mg/kg, light doses and timepoints combined
# [37] = patient WC007, drug dose 0.8 mg/kg, light doses and timepoints combined
# [38] = patient WC008, drug dose 0.8 mg/kg, light doses and timepoints combined
# [39] = patient WC009, drug dose 1.2 mg/kg, light doses and timepoints combined
# [40] = patient WC010, drug dose 1.2 mg/kg, light doses and timepoints combined
substance,measurement,setting,value
tin ethyl etiopurpurin [SnET2],Complete Responders,[1],0
same,Partial Responders,[1],0
same,Response Rate (%),[1],0%
same,Total Responders,[1],0
same,Complete Responders,[2],0
same,Partial Responders,[2],0
same,Response Rate (%),[2],0%
same,Total Responders,[2],0
same,Complete Responders,[3],0
same,Partial Responders,[3],0
same,Response Rate (%),[3],0%
same,Total Responders,[3],0
same,Complete Responders,[4],0
same,Partial Responders,[4],1
same,Response Rate (%),[4],50%
same,Total Responders,[4],1
same,Complete Responders,[5],0
same,Partial Responders,[5],0
same,Response Rate (%),[5],0%
same,Total Responders,[5],0
same,Complete Responders,[6],0
same,Partial Responders,[6],0
same,Response Rate (%),[6],0%
same,Total Responders,[6],0
same,Complete Responders,[7],0
same,Partial Responders,[7],0
same,Response Rate (%),[7],0%
same,Total Responders,[7],0
same,Complete Responders,[8],0
same,Partial Responders,[8],0
same,Response Rate (%),[8],0%
same,Total Responders,[8],0
same,Complete Responders,[9],0
same,Partial Responders,[9],0
same,Response Rate (%),[9],0%
same,Total Responders,[9],0
same,lesions with responses,0.8 mg/kg or higher,95 of 102
same,Complete Responders,[10],9
same,Partial Responders,[10],2
same,Response Rate (%),[10],78%
same,Total Responders,[10],11
same,% Responders,[11],79%
same,Total Responders,[11],11
same,Complete Responders,[12],8
same,Partial Responders,[12],5
same,Response Rate (%),[12],87%
same,Total Responders,[12],13
same,% Responders,[13],87%
same,Total Responders,[13],13
same,Complete Responders,[14],12
same,Partial Responders,[14],1
same,Response Rate (%),[14],87%
same,Total Responders,[14],13
same,% Responders,[15],87%
same,Total Responders,[15],13
same,Complete Responders,[16],3
same,Partial Responders,[16],0
same,Response Rate (%),[16],100%
same,Total Responders,[16],3
same,% Responders,[17],100%
same,Total Responders,[17],3
same,Complete Responders,[18],4
same,Partial Responders,[18],1
same,Response Rate (%),[18],100%
same,Total Responders,[18],5
same,% Responders,[19],100%
same,Total Responders,[19],5
same,Complete Responders,[20],8
same,Partial Responders,[20],0
same,Response Rate (%),[20],100%
same,Total Responders,[20],8
same,% Responders,[21],100%
same,Total Responders,[21],8
same,Complete Responders,[22],5
same,Partial Responders,[22],7
same,Response Rate (%),[22],100%
same,Total Responders,[22],12
same,% Responders,[23],100%
same,Total Responders,[23],6
same,Complete Responders,[24],7
same,Partial Responders,[24],9
same,Response Rate (%),[24],100%
same,Total Responders,[24],16
same,% Responders,[25],100%
same,Total Responders,[25],9
same,Complete Responders,[26],11
same,Partial Responders,[26],3
same,Response Rate (%),[26],100%
same,Total Responders,[26],14
same,% Responders,[27],100%
same,Total Responders,[27],7
same,response rate of individual patients,"all patients at 0.8 mg/kg or higher, with the exception of one patient dosed at 0.8 mg/kg",100%
same,response at the drug dose threshold and greater,at about 0.5 to about 0.8 mg/kg and greater (1.2 mg/kg),good responses were observed
same,threshold dose for lesion response,dose escalation 0.1-1.2 mg/kg,0.8 mg/kg
same,response below the drug dose threshold,doses below about 0.5 to about 0.8 mg/kg,no response was observed
same,Lesions Responded,doses less than 0.8 mg/kg,1 of 111
same,influence of light dose and treatment timepoint,"light doses 100 to 200 J/cm^2, timepoints 24 to 72 hours post administration",did not indicate significant differences
same,variation in response with treatment timepoint,"light given at 24, 48 or 72 hours after administration",minimal variation in response with treatment timepoint
same,% Lesions Responded,[28],74%
same,Lesions Responded,[28],20
same,% Lesions Responded,[29],100%
same,Lesions Responded,[29],6
same,% Lesions Responded,[30],100%
same,Lesions Responded,[30],1
same,% Lesions Responded,[31],100%
same,Lesions Responded,[31],3
same,% Lesions Responded,[32],100%
same,Lesions Responded,[32],4
same,% Lesions Responded,[33],100%
same,Lesions Responded,[33],6
same,% Lesions Responded,[34],100%
same,Lesions Responded,[34],6
same,% Lesions Responded,[35],100%
same,Lesions Responded,[35],4
same,% Lesions Responded,[36],100%
same,Lesions Responded,[36],6
same,% Lesions Responded,[37],100%
same,Lesions Responded,[37],9
same,% Lesions Responded,[38],100%
same,Lesions Responded,[38],8
same,% Lesions Responded,[39],100%
same,Lesions Responded,[39],20
same,% Lesions Responded,[40],100%
same,Lesions Responded,[40],2
